Earlier results as cited in US20140255430A1, “METHODS AND REAGENTS FOR DETECTION AND TREATMENT OF ESOPHAGEAL METAPLASIA” (NATIONAL UNIVERSITY OF SINGAPORE, priority 2010, published 2014).

Target: T1, PPARgamma (Homo sapiens, UniProt P37231)
T1 sequence (P37231 1-505): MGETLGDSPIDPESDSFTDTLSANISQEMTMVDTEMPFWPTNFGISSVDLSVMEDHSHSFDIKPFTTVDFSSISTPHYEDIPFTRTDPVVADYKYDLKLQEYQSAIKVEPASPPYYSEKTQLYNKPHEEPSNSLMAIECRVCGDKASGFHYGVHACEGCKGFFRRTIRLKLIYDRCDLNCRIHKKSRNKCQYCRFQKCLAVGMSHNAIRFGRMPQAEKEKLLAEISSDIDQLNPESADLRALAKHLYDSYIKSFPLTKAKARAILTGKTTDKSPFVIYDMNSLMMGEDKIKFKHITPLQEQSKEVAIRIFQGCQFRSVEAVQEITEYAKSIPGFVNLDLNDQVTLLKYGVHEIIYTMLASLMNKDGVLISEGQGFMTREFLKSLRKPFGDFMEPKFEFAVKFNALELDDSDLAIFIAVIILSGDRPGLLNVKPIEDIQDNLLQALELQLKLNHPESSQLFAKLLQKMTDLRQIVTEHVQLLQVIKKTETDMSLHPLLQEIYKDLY
Conditions: irreversible inhibitor

IC50 for suppression of PPARgamma: nanomolar
SMILES: O=C(Nc1ccccc1)c1cc([N+](=O)[O-])ccc1Cl [GW-9662, 2-Chloro-5-nitro-N-phenyl-benzamide]
